Experimental data published in patent US20030143215A1, “Carbonyl stress-ameliorating agents” (priority 1999, published 2003).

B1: glyoxalase I: commercially available enzyme (Sigma) derived from yeast, lactoyl GSH lyase (EC. 4.4.1.5) (protein, UniProt P50107 1-326, looked up)
Glyoxalase I: MSTDSTRYPIQIEKASNDPTLLLNHTCLRVKDPARTVKFYTEHFGMKLLSRKDFEEAKFSLYFLSFPKDDIPKNKNGEPDVFSAHGVLELTHNWGTEKNPDYKINNGNEEPHRGFGHICFSVSDINKTCEELESQGVKFKKRLSEGRQKDIAFALGPDGYWIELITYSREGQEYPKGSVGNKFNHTMIRIKNPTRSLEFYQNVLGMKLLRTSEHESAKFTLYFLGYGVPKTDSVFSCESVLELTHNWGTENDPNFHYHNGNSEPQGYGHICISCDDAGALCKEIEVKYGDKIQWSPKFNQGRMKNIAFLKDPDGYSIEVVPHGLIA

Key:
[1] = in vitro; Miyata T., J. Am. Soc. Nephrol. 11: 1719-1725, 2000; cited from earlier work
[2] = Incubation of sera with thiol compounds, production of AGE; details: sera from a normal person and patients with diabetes mellitus; a long period was required
From the text: As described above, a decrease in concentration of redox coenzymes, such as GSH and NAD (P), is suspected to be the cause of AGE formation because of a decreased elimination of carbonyl compounds. […] Based on this theory, the present inventors tried to directly administer thiol compounds, such as GSH and cystein.

[3] = 400 μM methylglyoxal, 0-8 mM glutathione, PBS(-) pH7.4, 37° C., 0-24 hours; FIG. 1
Protocol: The solutions were incubated at 37° C. Samples were taken after 0, 2, 4, 8, and 24 hours; and 40 μl of 2 M perchlorate, 40 μl of 1% o-phenylenediamine, and 100 μl of 200 μM glyoxal were added to 100 μl of each sample. The mixtures were stirred, and then incubated at 25° C. for one hour.

[4] = Dicarbonyl compound elimination in mixed solutions containing three dicarbonyl compounds; assay type: biochemical; details: FIG. 4
Protocol: PBS(-) solutions (pH7. 4) were prepared, whose concentrations of glyoxal, methylglyoxal, and 3-deoxyglucosone were all 200 μM, glutathione concentration were 0, 0.5, 1, or 5 mM, and glyoxalase I concentration were 0, 0.05, 0.1, 0.5, 1, or 2 unit/ml.

[5] = Dicarbonyl compound elimination in solutions separately containing each dicarbonyl compound; assay type: biochemical; details: 100 μM dicarbonyl, glutathione 0-10 mM, glyoxalase I 0-10 unit/ml, 37° C., 1 hour; FIG. 5
Protocol: PBS(-) solutions (pH 7.4) were prepared, whose glyoxal concentration were 100 μM, glutathione concentration 0, 0.1, 1, or 10 mM, and glyoxalase I concentration 0, 0.01, 0.1, 1, or 10 unit/ml. […] The same method was used for methylglyoxal and 3-deoxyglucosone in place of glyoxal.

[6] = Elimination of methylglyoxal from methylglyoxal solutions in the presence of glutathione and glyoxalase I; assay type: biochemical; details: 400 μM methylglyoxal, 4 mM glutathione, glyoxalase I 8-80 unit/ml, 37° C., 1 hour; FIG. 2
Protocol: PBS(-) solutions were prepared, whose methylglyoxal concentration were 400 μM, glutathione concentration 4 mM, and the concentration of an enzyme having glyoxalase I activity were 8, 16, 40, and 80 unit/ml, respectively. The solutions were incubated at 37° C. A commercially available enzyme (Sigma) derived from yeast was used as the glyoxalase I. Samples were taken after 1 hour, and then methylglyoxal was quantified by the same method as in Example 1.

Molecule | trapping of carbonyl compounds methylglyoxal and glyoxal [1] | production of AGE in sera [2] | further results
N=C(N)NN [aminoguanidine] | efficiently trap carbonyl compounds |  | 
CN(C)C(=N)N=C(N)N [metformin] | efficiently trap carbonyl compounds |  | 
CCCCNC(=N)NC(=N)N [buformin] | efficiently trap carbonyl compounds |  | 
N[C@@H](CS)C(=O)O [cystein, reference compound] |  | suppressed the production of AGE | 
N[C@@H](CCC(=O)N[C@@H](CS)C(=O)NCC(=O)O)C(=O)O [glutathione] |  | suppressed the production of AGE | methylglyoxal trapping (residual rate of methylglyoxal) [3]: trapped by glutathione depending on the concentration of glutathione and incubation time
B1 |  |  | concentrations of dicarbonyl compounds in mixed solution ([4]; 200 μM each dicarbonyl, glutathione 0-5 mM, glyoxalase I 0-2 unit/ml, 37° C., 1 hour): Decrease in the concentrations of dicarbonyl compounds was observed; elimination of 3-deoxyglucosone in the mixed solution of three dicarbonyl compounds ([4]; coexistence of methylglyoxal and glyoxal, 200 μM each): decreased; concentrations of dicarbonyl compounds in solutions containing one dicarbonyl compound [5]: concentrations of dicarbonyl compounds decreased; methylglyoxal eliminated [6]: Approximately 99%
